Source: patent US20260294905A1, “USE OF PLURALITY OF COMPOUNDS IN PREPARATION OF DRUG FOR TREATING MYELOPROLIFERATIVE NEOPLASMS” (THE SECOND XIANGYA HOSPITAL OF CENTRAL SOUTH UNIVERSITY, priority 2022, published 2026)
Where “and” joins values, the source holds several entries; their conditions need not be identical. Identical values can stand only once. Entries after “also recorded” stand apart in the source; their conditions may differ.

Tests used:
[1] = system: HEL cells (human erythroleukemia cell line); test: CellTiter-Lumi luminescence proliferation of naive HEL cells, 48 h; type: cell-based; settings: for activity at 0.1 µM / activity at 0.3 µM / activity at 1 µM / activity at 3 µM / activity at 10 µM: vs DMSO control, read-out: average proliferation rate of HEL cells
Protocol: (§1) HELs (Human erythroleukemia cell lines) and Ruxolitinib-resistant HEL cells were both cultured in a RPMI medium (Gibco) containing 20% heat-inactivated fetal bovine serum (Gibco) and 1% penicillin/streptomycin.
(§2) Ruxolitinib and other compounds were all purchased from Selleck, dissolved in DMSO with a stock solution concentration of 10 mM, and cryopreserved at −80° C. The working solution was diluted to a specified multiple using a RPMI medium and then used for treating cells. Ruxolitinib was specifically ruxolitinib phosphate.
(§3) To detect the antiproliferative effect of the inhibitor, the aforementioned cell lines were cultured at 3,000 cells/100 μL of the system per well, added with increasing concentrations of Ruxolitinib (concentration gradients of HEL cells: 0, 0.1, 1, 2.5, 5 μM; or 0, 0.1, 0.3, 1, 3, 10 μM), and added with DMSO to make up to the same amount. 4 parallel replicate groups were set up, and 3 blank wells (wells containing culture media without cells) were set up.
(§4) A calculation formula of the cell proliferation rate was: cell proliferation rate=(Luminescence value of the group added with the drug-average Luminescence value of the blank wells)/(Luminescence value of the DMSO control group-average Luminescence value of the blank wells)×100%.
In order to detect the effects of the compounds on the proliferation abilities of drug-resistant myeloproliferative neoplasm cells, the method was to treat the HEL naïve cell lines with increasing concentrations of Ruxolitinib and the compounds respectively, and to detect the proliferation of the cells by a CellTiter-Lumi™ luminescence method.

[2] = system: HEL cells (human erythroleukemia cell line); test: Annexin V-PI staining and flow cytometry, apoptosis of HEL cells, 24 h; type: cell-based
Protocol: • 1. the cell lines and inhibitors were the same as those in Example 1. • 2. detection of cell apoptosis
(§5) To detect the apoptosis-promoting effect of the inhibitors, HEL naïve cell strains were treated with Ruxolitinib and the compounds for 24 hours respectively (with concentrations of: 0, 0.1, 0.5, 1 μM or 0, 0.1, 0.3, 1, 3, 10 μM), and added with DMSO to make up to the same amount. 3 parallel replicate groups were set up, and cell apoptosis was detected by Annexin V and PI staining followed by flow cytometry.
(§6) A calculation formula of cell apoptosis rate was: cell apoptosis rate=the ratio of early apoptotic cells (Annexin V^+/PI^−)+the ratio of late apoptotic cells and necrotic cells (Annexin V^+/PI^+).

[3] = system: HEL^RE cells (Ruxolitinib-resistant HEL); test: Annexin V-PI staining and flow cytometry, apoptosis of HEL^RE cells; type: cell-based, human; settings: for average apoptosis rate of HEL-RE cells: 24 h; for promotion of apoptosis of HEL^RE cells (in words): 0.1-10 μM
Protocol: as §5, §6
In order to detect the effects of compounds on the abilities of drug-resistant myeloproliferative neoplasm cells, the method was to treat HEL^RE with increasing concentrations of Ruxolitinib and the compounds, and to detect cell apoptosis by Annexin V and PI staining followed by flow cytometry.

[4] = system: HEL^RE cells (Ruxolitinib-resistant HEL); test: CellTiter-Lumi luminescence proliferation of Ruxolitinib-resistant HEL^RE cells, 48 h; type: cell-based, human; settings: for inhibition of proliferation of HEL^RE cells (in words): 0.1-10 μM; for activity at 0.1 µM / activity at 0.3 µM / activity at 1 µM / activity at 3 µM / activity at 10 µM: vs DMSO control, read-out: average proliferation rate of HEL^RE cells
Excerpt: as §1
A Ruxolitinib-resistant HEL model, i.e., a HEL^RE model, was constructed by starting the addition of Ruxolitinib at a concentration lower than the IC50 of naïve cells and slowly incrementing the concentration to a high concentration, and preventing the cells from being killed. Our starting concentration was 0.1 μM. The drug was added upon occurrence of cell proliferation. The drug addition gradient was an increment at a multiple of 1.25, and the final concentration was 2.0 μM. Stable drug-resistant cells were obtained after 4-6 weeks.
as §2, §3, §4
A method for evaluating whether the model was successfully constructed was to compare the IC50s of resistant cells and naïve cells.
In order to detect the effects of five compounds on the proliferation abilities of drug-resistant myeloproliferative neoplasm cells, the method was to treat HEL^RE with increasing concentrations of Ruxolitinib and the five compounds respectively, and to detect the proliferation of the cells by a CellTiter-Lumi™ luminescence method.

[5] = system: myeloproliferative neoplasms patients; settings: cited from earlier work; for side effects / safety in patients / effect on symptoms, clonal hematopoiesis, mutant gene load: clinical use
[6] = Homo sapiens, HEL^RE cells, 48 h

| SMILES | activity at 0.1 µM ([1]; Homo sapiens, 48 h) [%] | activity at 0.3 µM ([1]; Homo sapiens, 48 h) [%] | activity at 1 µM ([1]; Homo sapiens, 48 h) [%] | activity at 3 µM ([1]; Homo sapiens, 48 h) [%] | activity at 10 µM ([1]; Homo sapiens, 48 h) [%] | average apoptosis rate of HEL cells ([2]; 0.1 μM) | average apoptosis rate of HEL cells ([2]; 0.3 μM) | average apoptosis rate of HEL cells ([2]; 1 μM) | average apoptosis rate of HEL cells ([2]; 3 μM) | average apoptosis rate of HEL cells ([2]; 10 μM) | average apoptosis rate of HEL-RE cells ([3]; 0.1 μM) | average apoptosis rate of HEL-RE cells ([3]; 0.3 μM) | average apoptosis rate of HEL-RE cells ([3]; 1 μM) | average apoptosis rate of HEL-RE cells ([3]; 3 μM) | average apoptosis rate of HEL-RE cells ([3]; 10 μM) | activity at 0.1 µM [4, 6] [%] | activity at 0.3 µM [4, 6] [%] | activity at 1 µM [4, 6] [%] | activity at 3 µM [4, 6] [%] | activity at 10 µM [4, 6] [%] | further results |
| --- | --- | --- | --- | --- | --- | --- | --- | --- | --- | --- | --- | --- | --- | --- | --- | --- | --- | --- | --- | --- | --- |
| Cc1ccc2c(Nc3cccc(Cl)c3F)nccc2c1NC(=O)c1csc2c(N)ncnc12 [Belvarafenib] | 98.9 ± 6.41 | 89.2 ± 4.68 | 98.2 ± 3.19 | 90.1 ± 4.72 | 87.3 ± 2.39 | 6.58±0.760% and 6.58% | 7.42±0.950% and 7.42% | 7.80±0.700% and 7.80% | 7.17±1.31% and 7.17% | 7.55±0.160% and 7.55% | 5.55±0.440% and 5.55% | 5.40±0.570% and 5.40% | 5.71±0.260% and 5.71% | 6.05±0.430% and 6.05% | 7.13±0.450% and 7.13% | 104 ± 6.13 | 92.4 ± 2.45 | 70.4 | 45.4 ± 2.33 | 31.1 ± 3.6 | inhibition of proliferation of HEL cells (in words) ([1]; 0.1-10 μM): could not inhibit the proliferation of the HEL cells; promotion of apoptosis of HEL cells (in words) ([2]; 0.1-10 μM): could not promote apoptosis of the HEL cells; promotion of apoptosis of HEL^RE cells (in words) [3]: could not promote apoptosis of the HEL^RE cells; inhibition of proliferation of HEL^RE cells (in words) ([4]; HEL^RE cells): could inhibit the proliferation of the HEL^RE cells, and this effect increased with increase in the drug concentration |
| Cc1cnc(Nc2ccc(OCCN3CCCC3)cc2)nc1Nc1cccc(S(=O)(=O)NC(C)(C)C)c1 [Fedratinib] |  |  |  |  |  |  |  |  |  |  |  |  |  |  |  |  |  |  |  |  | side effects / safety in patients [5]: may cause encephalopathy, including the risk of Wernicke's encephalopathy |
| NC(=O)NO [Hydroxyurea, hydroxyurea] |  |  |  |  |  |  |  |  |  |  |  |  |  |  |  |  |  |  |  |  | effect on symptoms, clonal hematopoiesis, mutant gene load [5]: can only relieve symptoms but cannot inhibit clonal hematopoiesis; side effects / safety in patients [5]: may increase the risks of myelodysplastic syndrome and acute myelogenous leukemia |
| Cn1c(Nc2ccc(C(F)(F)F)cc2)nc2cc(Oc3ccnc(-c4ncc(C(F)(F)F)[nH]4)c3)ccc21 [RAF265] | 66.1 ± 4.71 | 45.2 ± 2.96 | 37 ± 2.18 | 30 ± 0.13 | 19.2 ± 0.99 | 7.24±1.30% and 7.24% | 7.19±0.400% and 7.19% | 8.11±0.260% and 8.11% | 10.7±1.22% and 10.7% | 12.8±1.44% and 12.8% | 6.48±0.480% and 6.48% | 7.31±0.140% and 7.31% | 8.24±0.730% and 8.24% | 11.9±0.520% and 11.9% | 19.1±3.75% and 19.1% | 92 ± 3.92 | 67.2 ± 3.7 | 35.8 ± 3.88 | 21.8 ± 1.48 | 3.45 ± 0.58 | inhibition of proliferation of HEL cells (in words) ([1]; 0.1-10 μM): can successfully inhibit the proliferation of the HEL cells; also recorded: could inhibit the proliferation of the HEL cells, this effect was increased with the increase of the drug concentration; inhibitory effect on proliferation compared with Ruxolitinib ([1]; 0.1-10 μM): its inhibitory effect was better than that of Ruxolitinib; overall effectiveness among the compounds ([1]; proliferation and apoptosis taken together): more effective; effect on apoptosis compared with Ruxolitinib ([2]; 0.1-10 μM): its inhibitory effect was better than that of Ruxolitinib; promotion of apoptosis of HEL cells (in words) ([2]; 0.1-10 μM): could promote the apoptosis of the HEL cells, this effect was increased with the increase of the drug concentration; also recorded: can promote the apoptosis of the HEL cells; promotion of apoptosis of HEL^RE cells (in words) [3]: could promote apoptosis of the HEL^RE cells, and this effect increased with increase in the drug concentration; also recorded: can promote the apoptosis of the HEL^RE cells; inhibition of proliferation of HEL^RE cells (in words) ([4]; HEL^RE cells): could inhibit the proliferation of the HEL^RE cells, and this effect increased with increase in the drug concentration; overall effectiveness among the compounds ([4]; HEL^RE cells, proliferation and apoptosis taken together): more effective |
| N#CC[C@H](C1CCCC1)n1cc(-c2ncnc3[nH]ccc23)cn1 [Ruxolitinib] | 80.9 ± 1.35 | 54.9 ± 4.35 | 42.7 ± 4.05 | 34.7 ± 1.14 | 29.4 ± 0.49 | 7.40±0.059% and 7.40% | 7.46±0.679% and 7.46% | 8.61±0.403% and 8.61% | 7.19±0.209% and 7.19% | 6.36±0.036% and 6.36% | 12.4±0.540% and 12.4% | 13.0±1.03% and 13.0% | 10.8±1.02% and 10.8% | 10.2±0.880% and 10.2% | 10.6±1.33% and 10.6% | 105 ± 2.08 | 105 ± 3.59 | 104 ± 9.46 | 109 ± 4.39 | 96 ± 3.69 | IC50 ([1]; Homo sapiens, 48 h, mean (95% confidence interval)): 2.31 µM; patients developing drug resistance ([5]; MF patients treated for 1 year, type I JAK inhibitors such as RUX): more than 40%; effect on symptoms, clonal hematopoiesis, mutant gene load [5]: cannot reduce the load of mutant genes; side effects / safety in patients [5]: more severe anemia; also recorded: bone marrow suppression as a common side effect; spleen volume and symptoms ([5]; intermediate- and high-risk MF and PV, Phase II and III trials, vs optimal therapy): can reduce the spleen volume and alleviate symptoms; drug resistance index (ratio of IC50s of resistant and naive cells) ([4]; HEL^RE vs HEL cells, 2880 min): 19.0; IC50 ([4]; Homo sapiens, HEL^RE cells, 48 h, mean (95% confidence interval)): 44.7 µM |
